The record followed here is US20230210999A1, “TARGETED PROTEASE DEGRADATION (TED) PLATFORM” (EUBULUS BIOTHERAPEUTICS INC., priority 2020, published 2023).

The subject of assay [1] is MV4;11 cells. As to the kind of experiment: Cell proliferation experiment (Alamar blue, 72 h), MV4;11. It is filed as cell-based, human. The conditions noted are these: Homo sapiens, MV4-11, 72 h, MV4;11 cells, 72 h; read-out: Inhibitory activity IC50 of tested compounds on MV4;11 cells. Put shortly: (§1)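 Log-phase cells were seeded in 96-well plates and exposed to compound in complete medium over a 5-fold dilution series, in duplicate, for 72 h. Alamar blue fluorescence was read per well and IC50 was obtained by four-parameter curve fitting.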
For orientation: The colour change of resazurin is a common sign of viable cells or microbes.

For assay [2], the system named is Daudi cells. The assay is described as follows: Cell proliferation experiment, Daudi. In kind it is cell-based, human. The note with it: Homo sapiens, Daudi, 72 h, Daudi cells, 72 h; read-out: Inhibitory activity IC50 of tested compounds on Daudi cells. A digest of the protocol:
as §1

Assay [3] concerns NCIH82 cells. As to the kind of experiment: Cell proliferation experiment, NCI-H82. It is filed as cell-based, human. The conditions noted are these: Homo sapiens, NCI-H82, 72 h, NCIH82 cells, 72 h; read-out: Inhibitory activity IC50 of tested compounds on NCIH82 cells. A digest of the protocol: as §1
Assay [4] concerns HT-29 cells. The assay is described as follows: Cell proliferation experiment, HT-29. It is filed as cell-based. The conditions noted are these: Homo sapiens; HT-29 cells, 72 h; read-out: Inhibitory activity IC50 of tested compounds on HT-29 cells. Here is the method:
(§2) Reagents: RPMI-1640 medium, McCoy's 5A medium, IMDM medium, MEM medium, L-15 medium, fetal bovine serum. Penicillin-Streptomycin double antibody, trypsin, etc., 2-mercaptoethanol, NEAA, pyruvate, etc.
(§3) The cells were cultured in conventional ways, and the cells should be passed at least 2 generations before plating. Cells at the logarithmic growth phase were collected, prepared into single cell suspensions and counted. The concentration of cells was adjusted to the desired concentration, and cells were inoculated into a 96-well cell culture plate at 100 μl per well. 100 μL of complete medium of the test compound were added to each well, set up 2 duplicate wells for each concentration, and diluted with a 5-fold gradient, and continued to culture for 72 h. All cells were subjected to IC50 test for corresponding samples. The experimental results are shown in Test Example 4.
(§4) The fluorescence intensity of each well was detected using the Alarm blue method, and IC50 was calculated.
(§5) IC50 was calculated according to the following formula:
(§6) Y=Max+(Min−Max)/[1+(X/IC50)×Slope]
(§7) wherein Min, Max and Slope represent the minimum, maximum and slope respectively.

The subject of assay [5] is U-87MG cells. As to the kind of experiment: Cell proliferation experiment, U-87MG. In kind it is cell-based. The note with it: Homo sapiens; U-87MG cells, 72 h; read-out: Inhibitory activity IC50 of tested compounds on U-87MG cells. The protocol:
as §2, §3, §4, §5, §6, §7

One may read the IC50 as the point on the concentration scale where inhibition reaches its midpoint.

Take `CC[C@@H]1C(=O)N(C)c2cnc(Nc3ccc(C(=O)NC4CCN(CCOCCOC[C@@H](N)C(=O)Nc5cccc6c5CC(C5CCC(=O)NC5=O)C6=O)CC4)cc3OC)nc2N1C1CCCC1` (stereo partly shown) [Compound 872]: the concentration for half-maximal inhibition (IC50) in assay [1] was 100 to 1000 nM; in assay [2] it was above 1000 nM; in assay [3], at most 1000 nM; in assay [4], above 1000 nM; in assay [5] it was above 1000 nM.

Take `CC[C@@H]1C(=O)N(C)c2cnc(Nc3ccc(C(=O)NC4CCN(CCOCCNCC#Cc5cccc6c5CN(C5CCC(=O)NC5=O)C6=O)CC4)cc3OC)nc2N1C1CCCC1` (stereo partly shown) [Compound 873]: the IC50 in assay [1] is at most 100 nM; in assay [2], 100 to 1000 nM; in assay [3] it was at most 1000 nM; in assay [4] it was at most 300 nM; in assay [5] it was 100 to 500 nM.

Consider `CC[C@@H]1C(=O)N(C)c2cnc(Nc3ccc(C(=O)NC4CCN(C[C@H](N)COCC#Cc5cccc6c5CN(C5CCC(=O)NC5=O)C6=O)CC4)cc3OC)nc2N1C1CCCC1` (stereo partly shown) [Compound 876], for which the IC50 in assay [1] is at most 100 nM; in assay [2] it was 100 to 1000 nM; in assay [3], above 1000 nM; in assay [4], above 1000 nM; in assay [5], 100 to 500 nM.

In the case of `CC[C@@H]1C(=O)N(C)c2cnc(Nc3ccc(C(=O)NCCCNCCOCCCC#Cc4cccc5c4CN(C4CCC(=O)NC4=O)C5=O)cc3OC)nc2N1C1CCCC1` (stereo partly shown) [Compound 881], the half-maximal inhibitory concentration (IC50) was 100 to 1000 nM in assay [1]; above 1000 nM in assay [2]; above 1000 nM in assay [3]; above 1000 nM in assay [4]; above 1000 nM in assay [5].

On to `CC[C@@H]1C(=O)N(C)c2cnc(Nc3ccc(C(=O)NCCCOCCOCCCNCCC#Cc4cccc5c4CN(C4CCC(=O)NC4=O)C5=O)cc3OC)nc2N1C1CCCC1` (stereo partly shown) [Compound 882], for which the IC50 in assay [1] is at most 100 nM; in assay [2], 100 to 1000 nM; in assay [3] it was at most 1000 nM; in assay [4], 300 to 1000 nM; in assay [5], at most 100 nM.

As for `CC[C@@H]1C(=O)N(C)c2cnc(Nc3ccc(C(=O)NCCCNCCOCCC#Cc4cccc5c4CN(C4CCC(=O)NC4=O)C5=O)cc3OC)nc2N1C1CCCC1` (stereo partly shown) [Compound 885], the IC50 in assay [1] is at most 100 nM; in assay [2] it was 100 to 1000 nM; in assay [3], above 1000 nM; in assay [4] it was above 1000 nM; in assay [5], 100 to 500 nM.

In the case of `CC[C@@H]1C(=O)N(C)c2cnc(Nc3ccc(C(=O)NCCCN(C)CCOCCC#Cc4cccc5c4CN(C4CCC(=O)NC4=O)C5=O)cc3OC)nc2N1C1CCCC1` (stereo partly shown) [Compound 886], the concentration for half-maximal inhibition (IC50) in assay [1] was at most 100 nM; in assay [2], 100 to 1000 nM; in assay [3], above 1000 nM; in assay [4], above 1000 nM; in assay [5], at most 100 nM.

Regarding `CC[C@@H]1C(=O)N(C)c2cnc(Nc3ccc(C(=O)NCCOCCOCCCNCCC#Cc4cccc5c4CN(C4CCC(=O)NC4=O)C5=O)cc3OC)nc2N1C1CCCC1` (stereo partly shown) [Compound 894], the IC50 in assay [1] was at most 100 nM; in assay [2], 100 to 1000 nM; in assay [3], above 1000 nM; in assay [4], above 1000 nM; in assay [5], 100 to 500 nM.

With `CC[C@@H]1C(=O)N(C)c2cnc(Nc3ccc(C(=O)NCCCNCCOCCOCCC#Cc4cccc5c4CN(C4CCC(=O)NC4=O)C5=O)cc3OC)nc2N1C1CCCC1` (stereo partly shown) [Compound 898], the IC50 is at most 100 nM in assay [1]; above 1000 nM in assay [2]; above 1000 nM in assay [3]; above 1000 nM in assay [4]; 100 to 500 nM in assay [5].

Turning to `CC[C@@H]1C(=O)N(C)c2cnc(Nc3ccc(C(=O)NC4CCN(CCCOCCCNCCC#Cc5cccc6c5CN(C5CCC(=O)NC5=O)C6=O)CC4)cc3OC)nc2N1C1CCCC1` (stereo partly shown) [Compound 906], the IC50 in assay [1] was at most 100 nM; in assay [2], 100 to 1000 nM; in assay [3] it was at most 1000 nM; in assay [4], 300 to 1000 nM; in assay [5], 100 to 500 nM.

As to `CC[C@@H]1C(=O)N(C)c2cnc(Nc3ccc(C(=O)NC4CCN(CCCNCCOCCCC#Cc5cccc6c5CN(C5CCC(=O)NC5=O)C6=O)CC4)cc3OC)nc2N1C1CCCC1` (stereo partly shown) [Compound 907], the 50% inhibitory concentration (IC50) in assay [1] is at most 100 nM; in assay [2], at most 100 nM; in assay [3], at most 1000 nM; in assay [4], 300 to 1000 nM; in assay [5] it was 100 to 500 nM.
